Experimental data taken from patent US20110002843A1, “METHOD OF DETECTING MYOCARDIAL DYSFUNCTION IN PATIENTS HAVING A HISTORY OF ASTHMA OR BRONCHOSPASM” (priority 2005, published 2011).
“Also recorded” adds a separate entry of the source.

Experiment: Pulmonary responses and safety in human subjects with mild, intermittent asthma (single-blind and double-blind parts)
Type: in vivo
Experimental: Methodology: The study consisted of 2 parts, a Single-Blind Part and a Double-Blind Part. The dose escalating, Single-Blind Part enrolled subjects with mild, intermittent asthma and consisted of 3 sequentially enrolled dosing cohorts with 8 subjects per cohort, such that Dosing Cohorts 1, 2 and 3 received binodenoson target doses of 0.5 μg/kg, 1.0 μg/kg and 1.5 μg/kg, respectively. All 8 subjects in a dosing cohort must have completed dosing at the assigned dose and a medical review of each cohort must have been acceptable before enrollment in the next cohort began. The Double-Blind Part was initiated only if the medical review of all safety data from the Single-Blind Part was acceptable. In the Double Blind Part, subjects with mild, intermittent asthma were randomly assigned in a 2:1 ratio to receive either binodenoson 1.5 μg/kg (n=40 planned) or placebo control (n=20 planned).
Both study parts were comprised of Screening, Treatment and Follow-Up Visits. The Screening Visit occurred 7 to 14 days before the Treatment Visit and consisted of a physical examination, medical history and application of inclusion and exclusion criteria. Subjects were instructed to measure peak expiratory flow (PEF) and asthma symptoms during a period of at least 7 days prior to the Treatment Visit. Subjects were to continue to meet all Screening eligibility criteria at the Treatment Visit and forced expiratory volume in 1 second (FEV1) was to remain within 80% of predicted for subjects to be eligible for dosing. All subjects enrolled in the Single-Blind Part and subjects randomized to receive binodenoson in the Double-Blind Part received 3 intravenous (IV) injections during the Treatment Visit: (1) placebo; (2) a low, challenge binodenoson dose to detect potential hypersensitivity reactions; and (3) an assigned binodenoson test dose. Subjects randomized to receive placebo in the Double Blind Part received 3 placebo injections. The Follow-Up Visit occurred 2 to 4 days following the Treatment Visit.
Eligible subjects were males or non-pregnant, nonlactating females ≧18 years of age weighing <350 pounds with a medical history of mild, intermittent asthma (as defined in the “Guidelines for the Diagnosis and Management of Asthma” prepared by the National Institutes of Health [NIH]) within 6 months of Screening.
Subjects were not eligible for the study if they had resting sitting systolic blood pressure (SBP)<100 or >140 mmHg, diastolic blood pressure (DBP)<60 or >90 mmHg, pulse rate >95 beats per minute (bpm), or a lower limit FEV1 at rest of <80% of the predicted value at Screening.
Dose and Mode of Administration: A stock solution of binodenoson (25 μg/mL) was administered as a bolus injection over 30 seconds (0.1 μg/kg=0.004 mL/kg of stock solution, 0.5 μg/kg=0.02 mL/kg of stock solution, 1.0 μg/kg=0.04 mL/kg of stock solution and 1.5 μg/kg=0.06 mL/kg of stock solution).
Duration of Treatment: Each subject received three 30-second bolus IV injections separated by ≧90 minutes in both the Single Blind and Double-Blind Parts of the study.
Criteria for Evaluation: The primary safety endpoint was clinically significant bronchoconstriction, defined as a ≧20% decrease in FEV1 from the predrug baseline following binodenoson administration. Other safety assessments included need for rescue medication, regular measurements of pulmonary function (FEV1 [% predicted], forced vital capacity [FVC] and forced expiratory flow during the middle half of the FVC [FEF25%-75%]), vital signs, pulse oximetry, physical examination findings, electrocardiogram (ECG) results, clinical laboratory results and adverse events.
Statistical Methods: All data collected in the study were summarized by treatment (placebo; 0.1 μg/kg binodenoson challenge; or 0.5, 1.0, or 1.5 μg/kg binodenoson) and study Part (Single-Blind or Double-Blind with univariate summaries). Continuous variables were summarized with descriptive statistics (n, mean, median, standard deviation [SD] and minimum and maximum). […]

[1] = double-blind, Binodenoson Group, second injection 0.1 μg/kg iv bolus, 15 minutes
[2] = double-blind, Binodenoson Group, second injection 0.1 μg/kg iv bolus, 90 minutes
[3] = double-blind, binodenoson 1.5 μg/kg group
[4] = double-blind, third injection 1.5 μg/kg
[5] = double-blind, third injection 1.5 μg/kg iv bolus, 5 min
[6] = double-blind, third injection 1.5 μg/kg iv bolus, 15 min
[7] = double-blind, third injection 1.5 μg/kg iv bolus, 45 min
[8] = double-blind, third injection 1.5 μg/kg iv bolus, 90 min
[9] = single-blind, Cohort 1, second injection 0.1 μg/kg iv bolus, 15 minutes
[10] = single-blind, Cohort 1, second injection 0.1 μg/kg iv bolus, 90 minutes
[11] = single-blind, Cohort 2, second injection 0.1 μg/kg iv bolus, 15 minutes
[12] = single-blind, Cohort 2, second injection 0.1 μg/kg iv bolus, 90 minutes
[13] = single-blind, Cohort 3, second injection 0.1 μg/kg iv bolus, 15 minutes
[14] = single-blind, Cohort 3, second injection 0.1 μg/kg iv bolus, 90 minutes

Nc1nc(N/N=C/C2CCCCC2)nc2c1ncn2[C@@H]1O[C@H](CO)[C@@H](O)[C@H]1O (stereo in doubt) [Binodenoson, 2-{2-[(Cyclohexyl)methylene]hydrazino}adenosine]
changes from baseline in mean FEV1, FEV1 (% predicted), FEF25%-75%, FVC (after any injection, single- or double-blind part): No clinically significant changes from baseline
safety and tolerability (doses up to 1.5 μg/kg): safe and well tolerated
FEF25%-75% Mean % Change from Baseline (SD) [1]: 1.531 (5.261) %
FEF25%-75% Mean (SD) [1]: 2.946 (0.973)
FEV1 (% predicted) Mean % Change from Baseline (SD) [1]: 0.3 (2.4) %
FEV1 (% predicted) Mean (SD) [1]: 88.3 (6.9) % predicted
FEV1 (L) Mean % Change from Baseline (SD) [1]: 0.421 (2.525) %
FEV1 (L) Mean (SD) [1]: 3.170 (0.590) L
FVC Mean % Change from Baseline (SD) [1]: 0.055 (2.683) %
FVC Mean (SD) [1]: 4.051 (0.824)
FEF25%-75% Mean % Change from Baseline (SD) [2]: 1.181 (6.739) %
FEF25%-75% Mean (SD) [2]: 2.965 (1.071)
FEV1 (% predicted) Mean % Change from Baseline (SD) [2]: −0.1 (2.9) %
FEV1 (% predicted) Mean (SD) [2]: 87.9 (7.7) % predicted
FEV1 (L) Mean % Change from Baseline (SD) [2]: −0.042 (3.348) %
FEV1 (L) Mean (SD) [2]: 3.152 (0.574) L
FVC Mean % Change from Baseline (SD) [2]: −0.457 (3.163) %
FVC Mean (SD) [2]: 4.021 (0.778)
abdominal discomfort, treatment emergent AE [3]: 5%
dizziness, treatment emergent AE [3]: 18%
flushing, treatment emergent AE [3]: 15%
headache, treatment emergent AE [3]: 5%
nausea, treatment emergent AE [3]: 8%
sinus tachycardia, treatment emergent AE [3]: 8%
tachycardia, treatment emergent AE [3]: 31%
changes from baseline in mean FEV1, FEV1 (% predicted), FEF25%-75%, FVC (double-blind, binodenoson 1.5 μg/kg group, after first or second injections): no clinically significant changes from baseline
subjects who experienced AEs (double-blind, binodenoson 1.5 μg/kg subjects (placebo 19%)): 69%
changes from baseline in mean FEV1, FEV1 (% predicted), FEF25%-75%, FVC [4]: No clinically significant changes from baseline
treatment differences in pulmonary function versus placebo [4]: no statistically significant treatment differences
FEF25%-75% Mean % Change from Baseline (SD) [5]: −0.877 (6.999) %
FEF25%-75% Mean (SD) [5]: 2.913 (0.981)
FEV1 (% predicted) Mean % Change from Baseline (SD) [5]: 0.1 (3.3) %
FEV1 (% predicted) Mean (SD) [5]: 88.0 (8.7) % predicted
FEV1 Mean % Change from Baseline (SD) [5]: 0.028 (3.849) %
FEV1 Mean (SD) [5]: 3.153 (0.589)
FVC Mean % Change from Baseline (SD) [5]: 0.186 (4.299) %
FVC Mean (SD) [5]: 4.022 (0.746)
FEF25%-75% Mean % Change from Baseline (SD) [6]: −0.477 (6.555) %
FEF25%-75% Mean (SD) [6]: 2.930 (1.012)
FEV1 (% predicted) Mean % Change from Baseline (SD) [6]: −0.3 (2.6) %
FEV1 (% predicted) Mean (SD) [6]: 87.6 (8.5) % predicted
FEV1 Mean % Change from Baseline (SD) [6]: −0.405 (3.079) %
FEV1 Mean (SD) [6]: 3.137 (0.574)
FVC Mean % Change from Baseline (SD) [6]: −0.309 (3.272) %
FVC Mean (SD) [6]: 4.004 (0.755)
FEF25%-75% Mean % Change from Baseline (SD) [7]: 0.388 (7.548) %
FEF25%-75% Mean (SD) [7]: 2.940 (0.959)
FEV1 (% predicted) Mean % Change from Baseline (SD) [7]: 0.1 (3.3) %
FEV1 (% predicted) Mean (SD) [7]: 88.0 (8.3) % predicted
FEV1 Mean % Change from Baseline (SD) [7]: 0.056 (3.888) %
FEV1 Mean (SD) [7]: 3.156 (0.598)
FVC Mean % Change from Baseline (SD) [7]: −0.133 (4.369) %
FVC Mean (SD) [7]: 4.015 (0.780)
FEF25%-75% Mean % Change from Baseline (SD) [8]: −0.335 (8.198) %
FEF25%-75% Mean (SD) [8]: 2.923 (0.963)
FEV1 (% predicted) Mean % Change from Baseline (SD) [8]: 1.1 (3.2) %
FEV1 (% predicted) Mean (SD) [8]: 89.0 (7.7) % predicted
FEV1 Mean % Change from Baseline (SD) [8]: 1.228 (3.835) %
FEV1 Mean (SD) [8]: 3.191 (0.588)
FVC Mean % Change from Baseline (SD) [8]: 1.755 (3.720) %
FVC Mean (SD) [8]: 4.093 (0.800)
changes in SBP, pulse rate and DBP (double-blind, magnitude greater in binodenoson than placebo group): Transient increases in SBP and pulse rate and decreases in DBP
need for rescue medication (single- and double-blind parts): No subject required rescue medication
clinically significant bronchoconstriction (≧20% decrease in FEV1 from predrug baseline) (single- and double-blind parts, doses up to 1.5 μg/kg): No bronchoconstriction events; also recorded: did not induce bronchoconstriction
FEF25%-75% Mean % Change from Baseline (SD) [9]: 0.526 (7.433) %
FEF25%-75% Mean (SD) [9]: 2.994 (0.911)
FEV1 (% predicted) Mean % Change from Baseline (SD) [9]: 0.1 (3.6) %
FEV1 (% predicted) Mean (SD) [9]: 90.5 (12.1) % predicted
FEV1 (L) Mean % Change from Baseline (SD) [9]: 0.136 (3.922) %
FEV1 (L) Mean (SD) [9]: 3.908 (0.824) L
FVC Mean % Change from Baseline (SD) [9]: −0.003 (2.480) %
FVC Mean (SD) [9]: 5.516 (1.130)
FEF25%-75% Mean % Change from Baseline (SD) [10]: 9.136 (9.019) %
FEF25%-75% Mean (SD) [10]: 3.241 (0.946)
FEV1 (% predicted) Mean % Change from Baseline (SD) [10]: 4.5 (3.5) %
FEV1 (% predicted) Mean (SD) [10]: 94.9 (12.3) % predicted
FEV1 (L) Mean % Change from Baseline (SD) [10]: 5.043 (4.097) %
FEV1 (L) Mean (SD) [10]: 4.101 (0.867) L
FVC Mean % Change from Baseline (SD) [10]: 2.379 (3.221) %
FVC Mean (SD) [10]: 5.654 (1.188)
FEF25%-75% Mean % Change from Baseline (SD) [11]: 0.724 (4.318) %
FEF25%-75% Mean (SD) [11]: 3.665 (1.555)
FEV1 (% predicted) Mean % Change from Baseline (SD) [11]: 1.4 (2.5) %
FEV1 (% predicted) Mean (SD) [11]: 94.8 (13.2) % predicted
FEV1 (L) Mean % Change from Baseline (SD) [11]: 1.292 (2.662) %
FEV1 (L) Mean (SD) [11]: 3.944 (0.895) L
FVC Mean % Change from Baseline (SD) [11]: 2.129 (3.295) %
FVC Mean (SD) [11]: 5.120 (1.195)
FEF25%-75% Mean % Change from Baseline (SD) [12]: −2.574 (12.173) %
FEF25%-75% Mean (SD) [12]: 3.471 (1.285)
FEV1 (% predicted) Mean % Change from Baseline (SD) [12]: 0.3 (4.2) %
FEV1 (% predicted) Mean (SD) [12]: 93.6 (13.0) % predicted
FEV1 (L) Mean % Change from Baseline (SD) [12]: 0.165 (4.367) %
FEV1 (L) Mean (SD) [12]: 3.895 (0.854) L
FVC Mean % Change from Baseline (SD) [12]: 1.624 (3.599) %
FVC Mean (SD) [12]: 5.100 (1.219)
FEF25%-75% Mean % Change from Baseline (SD) [13]: 0.635 (6.670) %
FEF25%-75% Mean (SD) [13]: 2.758 (0.695)
FEV1 (% predicted) Mean % Change from Baseline (SD) [13]: 0.1 (2.7) %
FEV1 (% predicted) Mean (SD) [13]: 90.5 (8.5) % predicted
FEV1 (L) Mean % Change from Baseline (SD) [13]: 0.145 (2.786) %
FEV1 (L) Mean (SD) [13]: 3.325 (0.690) L
FVC Mean % Change from Baseline (SD) [13]: 0.480 (2.084) %
FVC Mean (SD) [13]: 4.364 (0.876)
FEF25%-75% Mean % Change from Baseline (SD) [14]: 4.324 (8.478) %
FEF25%-75% Mean (SD) [14]: 2.836 (0.636)
FEV1 (% predicted) Mean % Change from Baseline (SD) [14]: 0.9 (2.0) %
FEV1 (% predicted) Mean (SD) [14]: 91.3 (7.3) % predicted
